The assay deals with BDF1 mice, B16 melanoma ip, median survival T/C. Nature of the assay: NCI In Vivo Anticancer Drug Screen. Data for tumor model B16 Melanoma (intraperitoneal) in B6D2F1 (BDF1) mice. The conditions noted are these: endpoint: median survival time, higher = longer survival. In outline: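 Each result divides a survival or tumor-size measurement in the compound-treated group by the same measurement in the vehicle group.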

Setting [1] is: dose: 1.25 mg/kg/injection, schedule: Q01DX009 (ip), vehicle: Klucel (hydroxypropylcellulose) (HPC).
The mark [2] stands for this setting: dose: 2.5 mg/kg/injection, schedule: Q01DX009 (ip), vehicle: Klucel (hydroxypropylcellulose) (HPC).
[3] abbreviates: dose: 6.25 mg/kg/injection, schedule: Q01DX009 (ip), vehicle: Klucel (hydroxypropylcellulose) (HPC).
Setting [4] is: dose: 12.5 mg/kg/injection, schedule: Q01DX009 (ip), vehicle: Klucel (hydroxypropylcellulose) (HPC).
Where [5] appears, read: dose: 25.0 mg/kg/injection, schedule: Q01DX009 (ip), vehicle: Klucel (hydroxypropylcellulose) (HPC).
The mark [6] stands for this setting: dose: 50.0 mg/kg/injection, schedule: Q01DX009 (ip), vehicle: Klucel (hydroxypropylcellulose) (HPC).
Where [7] appears, read: dose: 100.0 mg/kg/injection, schedule: Q01DX009 (ip), vehicle: Klucel (hydroxypropylcellulose) (HPC).
Where [8] appears, read: dose: 100.0 mg/kg/injection, schedule: Q01DX009 (ip), vehicle: saline.
The mark [9] stands for this setting: dose: 200.0 mg/kg/injection, schedule: Q01DX009 (ip), vehicle: Klucel (hydroxypropylcellulose) (HPC).
Where [10] appears, read: dose: 400.0 mg/kg/injection, schedule: Q01DX009 (ip), vehicle: Klucel (hydroxypropylcellulose) (HPC).
Setting [11] is: dose: 200.0 mg/kg/injection, schedule: Q01DX009 (ip), vehicle: saline.
Where [12] appears, read: dose: 400.0 mg/kg/injection, schedule: Q01DX009 (ip), vehicle: saline.

Where “and” joins values, the source holds several entries; their conditions need not be identical. Equal entries are not always repeated. Inconclusive results and toxic doses are left out.

With `Cn1ncc2c(N)ncnc21`, the T/C is 102 % of control under setting [1]; 111 % of control under setting [2]; 105 % of control (dose: 5.0 mg/kg/injection, schedule: Q01DX009 (ip), vehicle: Klucel (hydroxypropylcellulose) (HPC)); 119 % of control (dose: 10.0 mg/kg/injection, schedule: Q01DX009 (ip), vehicle: Klucel (hydroxypropylcellulose) (HPC)).

Consider `O=S(=O)(O)O`, for which the T/C is 111 % of control under setting [3], 106 % of control under setting [4], 99 % of control under setting [5] and 93 % of control under setting [6].

Consider `O=C(CCc1ccc(O)cc1)c1c(O)cc(O)cc1O`, for which the T/C reads like this: (dose: 50.0 mg/kg/injection, schedule: Q01DX009 (ip), vehicle: saline + alcohol) 110 % of control; (dose: 100.0 mg/kg/injection, schedule: Q01DX009 (ip), vehicle: saline + alcohol) 102 % of control; (dose: 400.0 mg/kg/injection, schedule: Q01DX009 (ip), vehicle: saline + alcohol) 107 % of control.

As for `C[n+]1c(/C=C\C=C\N2CCCCC2)sc2ccccc21`, the T/C reads like this: (dose: 0.06 mg/kg/injection, schedule: Q01DX009 (ip), vehicle: Klucel (hydroxypropylcellulose) (HPC)) 101 % of control; (dose: 0.12 mg/kg/injection, schedule: Q01DX009 (ip), vehicle: Klucel (hydroxypropylcellulose) (HPC)) 105 % of control; (dose: 0.25 mg/kg/injection, schedule: Q01DX009 (ip), vehicle: Klucel (hydroxypropylcellulose) (HPC)) 101 % of control; (dose: 0.5 mg/kg/injection, schedule: Q01DX009 (ip), vehicle: Klucel (hydroxypropylcellulose) (HPC)) 95 % of control; (dose: 0.63 mg/kg/injection, schedule: Q01DX009 (ip), vehicle: Klucel (hydroxypropylcellulose) (HPC)) 103 % of control; (dose: 1.0 mg/kg/injection, schedule: Q01DX009 (ip), vehicle: Klucel (hydroxypropylcellulose) (HPC)) 101 % of control. Also, the T/C by setting is: under setting [1], 101 % of control; (dose: 2.0 mg/kg/injection, schedule: Q01DX009 (ip), vehicle: Klucel (hydroxypropylcellulose) (HPC)) 105 % of control; under setting [2], 109 % of control.

For the compound `Nc1ccccc1SC1CC(=O)N(c2ccc(I)cc2)C1=O` (configuration not stated), the T/C is, setting by setting: (dose: 12.5 mg/kg/injection, schedule: Q01DX009 (ip), vehicle: saline with Tween-80) 100 % of control; under setting [5], 108 % of control; under setting [6], 97 % of control; (dose: 50.0 mg/kg/injection, schedule: Q01DX009 (ip), vehicle: saline with Tween-80) 88 % of control; under setting [7], 88 % of control and 100 % of control.

On to `Cc1ccn2ncnc2c1`, for which the T/C was 89 % of control (dose: 50.0 mg/kg/injection, schedule: Q01DX009 (ip), vehicle: saline) and 86 % of control under setting [8].

Regarding `O=[N+]([O-])c1ccc2c(c1)=N/C(=N\c1nc(O)c(O)[nH]1)N=2`, the T/C is 86 % of control under setting [7], 100 % of control under setting [9] and 103 % of control under setting [10].

For the compound `Cc1ccc(C)c(NC(=O)Nc2ccccc2Cl)c1`, the T/C by setting is: (dose: 25.0 mg/kg/injection, schedule: Q01DX009 (ip), vehicle: gum acacia) 86 % of control; (dose: 50.0 mg/kg/injection, schedule: Q01DX009 (ip), vehicle: gum acacia) 90 % of control; (dose: 100.0 mg/kg/injection, schedule: Q01DX009 (ip), vehicle: gum acacia) 88 % of control; (dose: 100.0 mg/kg/injection, schedule: Q04DX003 (ip), vehicle: gum acacia) 90 % of control.

Consider `O=C1NC(c2cccc3ccccc23)Nc2ccccc21` (configuration not stated), for which the T/C is, setting by setting: (dose: 15.6 mg/kg/injection, schedule: Q01DX009 (ip), vehicle: Klucel (hydroxypropylcellulose) (HPC)) 97 % of control; (dose: 31.2 mg/kg/injection, schedule: Q01DX009 (ip), vehicle: Klucel (hydroxypropylcellulose) (HPC)) 100 % of control; (dose: 62.5 mg/kg/injection, schedule: Q01DX009 (ip), vehicle: Klucel (hydroxypropylcellulose) (HPC)) 104 % of control; (dose: 125.0 mg/kg/injection, schedule: Q01DX009 (ip), vehicle: Klucel (hydroxypropylcellulose) (HPC)) 108 % of control.

With `Nc1nc(SCc2ccccc2)c2ncn(C3CC(O)C(CO)O3)c2n1` (configuration not stated), the T/C runs as follows: (dose: 4.25 mg/kg/injection, schedule: Q01DX009 (ip), vehicle: saline) 111 % of control; (dose: 8.5 mg/kg/injection, schedule: Q01DX009 (ip), vehicle: saline) 113 % of control; (dose: 17.0 mg/kg/injection, schedule: Q01DX009 (ip), vehicle: saline) 94 % of control; (dose: 34.0 mg/kg/injection, schedule: Q01DX009 (ip), vehicle: saline) 93 % of control.

Consider `COc1cc2ccc3c(c2cc1OC)N(C)C(OC)c1cc2c(cc1-3)OCO2` (configuration not stated), for which, under “dose: 10.0 mg/kg/injection, schedule: Q01DX009 (ip), vehicle: saline with Tween-80”, the T/C is 119 % of control.

Consider `C=C(C)C(=O)OC1C/C(CO)=C\C(O)C/C(C)=C/C2OC(=O)C(=C)C21` (configuration not stated), for which the T/C by setting is: (dose: 1.25 mg/kg/injection, schedule: Q01DX009 (ip), vehicle: saline + alcohol) 110 % of control; (dose: 2.5 mg/kg/injection, schedule: Q01DX009 (ip), vehicle: saline + alcohol) 90 % of control; (dose: 5.0 mg/kg/injection, schedule: Q01DX009 (ip), vehicle: saline + alcohol) 92 % of control; (dose: 10.0 mg/kg/injection, schedule: Q01DX009 (ip), vehicle: saline + alcohol) 100 % of control; (dose: 20.0 mg/kg/injection, schedule: Q01DX009 (ip), vehicle: saline + alcohol) 91 % of control; (dose: 40.0 mg/kg/injection, schedule: Q01DX009 (ip), vehicle: saline + alcohol) 95 % of control.

Take `OCCN1CCN(CCCN2c3ccccc3Sc3cccnc32)CC1`: the T/C is, setting by setting: (dose: 9.37 mg/kg/injection, schedule: Q01DX009 (ip), vehicle: saline) 89 % of control; (dose: 12.5 mg/kg/injection, schedule: Q01DX009 (ip), vehicle: saline) 93 % of control; (dose: 18.75 mg/kg/injection, schedule: Q01DX009 (ip), vehicle: saline) 107 % of control; (dose: 25.0 mg/kg/injection, schedule: Q01DX009 (ip), vehicle: saline) 113 % of control; (dose: 37.5 mg/kg/injection, schedule: Q01DX009 (ip), vehicle: saline) 105 % of control; (dose: 75.0 mg/kg/injection, schedule: Q01DX009 (ip), vehicle: saline) 102 % of control.

For the compound `COc1ccc(/C=C(\C)[N+](=O)[O-])cc1OC`, the T/C (dose: 12.5 mg/kg/injection, schedule: Q01DX009 (ip), vehicle: other) is 88 % of control and the T/C (dose: 25.0 mg/kg/injection, schedule: Q01DX009 (ip), vehicle: other) was 93 % of control.

In the case of `O=[N+]([O-])c1ccc(OCc2ccc(S(=O)(=O)F)c(Cl)c2)c(Cl)c1`, the T/C was 102 % of control under setting [7], 100 % of control under setting [9] and 97 % of control under setting [10].

Consider `CCCCCCCCCCCCCCCCCC[N+](C)(C)C` (tested in a mixture with another compound), for which the T/C reads like this: (dose: 0.1 mg/kg/injection, schedule: Q01DX009 (ip), vehicle: saline sonified) 90 % of control; (dose: 2.0 mg/kg/injection, schedule: Q01DX009 (ip), vehicle: saline sonified) 86 % of control; (dose: 4.0 mg/kg/injection, schedule: Q01DX009 (ip), vehicle: saline sonified) 86 % of control.

With `O=NN(CCCl)C(=O)NCCO`, the T/C (dose: 3.12 mg/kg/injection, schedule: Q01DX009 (ip), vehicle: water) was 176 % of control.

As to `CCN(CC)CCCC(C)NC(C)CCCN(CC)CC` (configuration not stated), the T/C by setting is: under setting [3], 101 % of control; (dose: 6.25 mg/kg/injection, schedule: Q01DX009 (ip), vehicle: water) 98 % of control; under setting [4], 95 % of control; (dose: 12.5 mg/kg/injection, schedule: Q01DX009 (ip), vehicle: water) 100 % of control.

As to `O=C(O)O`, the T/C is, setting by setting: under setting [8], 102 % of control; under setting [11], 97 % of control; under setting [12], 94 % of control.

Consider `O=C(O)CCC1CCC(=O)OC1=O` (configuration not stated), for which the T/C is 112 % of control under setting [8], 113 % of control under setting [11] and 113 % of control under setting [12].

Take `COc1ccc2c(ccc3oc([N+](=O)[O-])cc32)c1`: the T/C under setting [4] is 115 % of control, the T/C under setting [5] was 118 % of control and the T/C under setting [6] was 123 % of control.

The record behind these values is PubChem BioAssay AID192 (DTP/NCI, 2004).
